Where only a bound is given, the exact number is not on record here.

Here are results for 15 molecules from US11939319B2, “Pyridinyl and pyrazinyl-(asa)indolsulfonamides” (UCB Pharma GmbH, priority 2018, dated 2024).

The target of test [1] is T1, GPR17 (Homo sapiens, UniProt Q13304). To be noted: WO 2005/103291; cited from earlier work.
Target sequence in this assay (Q13304 whole entry, species assumed): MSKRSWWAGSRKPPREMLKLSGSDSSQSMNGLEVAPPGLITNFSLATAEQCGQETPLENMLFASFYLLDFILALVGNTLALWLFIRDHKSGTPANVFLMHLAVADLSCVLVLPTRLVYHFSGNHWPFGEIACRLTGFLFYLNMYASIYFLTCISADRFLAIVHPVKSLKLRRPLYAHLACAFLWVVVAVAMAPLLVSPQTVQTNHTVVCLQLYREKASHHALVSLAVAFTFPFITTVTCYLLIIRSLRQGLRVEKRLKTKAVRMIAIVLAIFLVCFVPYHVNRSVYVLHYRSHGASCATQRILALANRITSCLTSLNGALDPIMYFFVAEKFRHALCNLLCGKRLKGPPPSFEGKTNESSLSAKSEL
The target of test [2] is T1, GPR17. In words: cAMP accumulation functional assay (HTRF) in CHO hGPR17 cells. Format: cell-based. Set-up: host or cells: Flp-In T-REx CHO cells, expression induced with doxycycline. To be noted: Schild analysis against MDL29,951, 5 μM forskolin, activity range, read-out: cAMP assay pA2 (converted). How it is done: (§1) Flp-In T-REx CHO cells stably expressing human GPR17 receptor (CHO hGPR17) from Evi Kostenis' lab (Bonn University, Germany) were cultured at 37° C. in a humidified atmosphere of 5% CO2. Cells were grown in DMEM with Nutrient Mixture F-12 supplemented with hygromycin B (500 μg/ml) and blasticidin (30 μg/ml). Expression from the Flp-In locus was induced by treatment with doxycycline (1 μg/ml) for 16-20 h prior assays.
GPR17 activation can also recruit Gi-type G-protein signaling, resulting in a decrease of intracellular cyclic adenosine monophosphate (cAMP). Intracellular cAMP changes can be measured using the HTRF cAMP dynamic assay kit from CisBio (Codolet, France). Using homogenous time-resolved fluorescence technology (HTRF), the assay is based on competition between native cAMP produced by cells and cAMP labelled with the dye d2. The tracer binding was determined by an anti-cAMP antibody labeled with cryptate.
CHO hGPR17 were detached with PBS containing EDTA and dispatched in black 384-well plates with 5,000 cells per well. Cells were first incubated for 30 minutes at room temperature in HBSS Hepes (pH 7.4) containing vehicle or varying concentrations of test GPR17 antagonist/inverse agonist compounds. Then, a dose response curve of MDL29,951 GPR17 agonist (typically from 10^−5M to 10^−10M) was added on vehicle and on each test GPR17 antagonist/inverse agonist compound concentration in a final volume of 20 μL HBSS Hepes buffer (pH 7.4) containing 1% DMSO, 5 μM forskolin and 0.1 mM IBMX. After 60 minutes incubation at room temperature, the reaction is terminated and the cells lysed by adding the d2 detection reagent and the cryptate reagent in 10 μL lysis buffer each according to manufacturer's instructions. After 60 minutes incubation, changes in cAMP concentrations are measured according to manufacturer's instructions using an Envision plate reader with laser excitation. All incubations were performed in duplicate. Data was analyzed using GraphPad Prism software using the 4-parameter logistic equation to measure MDL29,951 pEC50s in absence and presence of GPR17 antagonist/inverse agonist test compounds. Dose ratio (DR) were plotted against antagonist concentrations and Schild analysis provided estimated affinity pA2 of GPR17 antagonist/inverse agonist test compounds.
The activities of the Example compounds tested are depicted in the table below. The activity ranges A, B and C refer to pA2 values in the cAMP assay as follows: “A”: pA2 6.5≤x<7.5, “B”: pA2 7.5≤x<8.5, “C”: 8.5≤pA2.
On the technique in general: Changes in cAMP serve as a functional read-out for many G protein-coupled receptors.
Target sequence in this assay (Q13304 29-367 limits assumed): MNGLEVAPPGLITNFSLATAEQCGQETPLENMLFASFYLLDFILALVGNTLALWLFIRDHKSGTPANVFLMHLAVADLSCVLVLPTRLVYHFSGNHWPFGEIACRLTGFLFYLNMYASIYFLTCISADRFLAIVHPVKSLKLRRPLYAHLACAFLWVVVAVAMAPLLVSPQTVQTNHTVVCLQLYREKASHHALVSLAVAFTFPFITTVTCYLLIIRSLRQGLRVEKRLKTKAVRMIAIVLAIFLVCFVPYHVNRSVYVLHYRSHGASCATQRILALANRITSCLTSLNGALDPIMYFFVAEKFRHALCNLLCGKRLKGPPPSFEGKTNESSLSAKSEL

The target of test [3] is T1, GPR17. In words: Calcium mobilization functional assay (Ca2+ assay) in CHO hGPR17 cells. The arrangement: host or cells: Flp-In T-REx CHO cells, expression induced with doxycycline. It is filed as cell-based. To be noted: inhibition of 50 nM MDL29,951 (GPR17 agonist), activity range, read-out: Ca^2+ assay pIC50 (converted). How it is done: as §1
Target sequence in this assay (Q13304 29-367 limits assumed): as above
GPR17 is a G-protein coupled receptor. GPR17 activation triggers Gq-type G-protein signaling resulting in endoplasmic reticulum calcium (Ca^2+) stores release in cytosol which can be measured using Calcium 5 dye, a fluorescent indicator dye of cytosolic Ca^2+ levels. The compounds of the present invention were assessed either in the Ca^2+ assay or in the GPR17 cAMP assay, described further below.
CHO hGPR17 were defrosted and seeded at a density of 20,000 cells per well into black 384-well plates with clear bottom. Cells were incubated overnight at 37° C. in a humidified atmosphere of 5% CO2. Sixteen to twenty hours after seeding, CHO hGPR17 were loaded for 60 min with Calcium 5 dye, a cytosolic Ca^2+ indicator fluorescent dye, according to manufacturer's instructions. Fluorescent signal relative to cytosolic Ca^2+ concentration was recorded over time at room temperature in FLIPR Tetra reader. Cells were first incubated for 30 minutes at room temperature in HBSS Hepes buffer pH 7.4 containing increasing concentrations of test compounds (typically 10^−11 M to 10^−6M). Then, 50 nM MDL29,951, a GPR17 agonist, was added to the cells. Inhibitory effects of varying concentrations test compounds were measured and resulting pIC50S were determined. All incubations were performed in duplicate and results were compared to a concentration response curve of GPR17 agonist and antagonist reference compounds. Analysis and curve fitting were performed in ActivityBase XE using XLfit 4-parameter logistic equation y=A+((B−A)/(1+((C/x)^D))) where A, B, C and D stand for minimum y, maximum y, IC50 and slope, respectively.
The activities of the Example compounds tested are depicted in the table 6 in Section B-IIB below. The activity ranges A, B and C refer to pIC50 values in the Ca^2+ assay as follows: “A”: pIC50 6.5≤x<7.5, “B”: pIC50 7.5≤x<8.5, “C”: 8.5≤pIC50

With `NCC(=O)CCC(=O)O` [Example 5-ALA, 5 amino levulinic acid], the “amounts needed in the assays (GPR17 activating ligand)” value in test [1] is “three digit micromolar range”. For `O=S(=O)(Nc1cc(F)c(Cl)nc1F)c1c[nH]c2cc(Cl)ccc12` [Example I-2, 6-chloro-N-(6-chloro-2,5-difluoropyridin-3-yl)-1H-indole-3-sulfonamide], the Kb in test [2] is 3.16 to 31.6 nM. Besides, the IC50 in test [3] is at most 3.16 nM. For the molecule `COc1nc(Cl)c(F)cc1NS(=O)(=O)c1c[nH]c2cc(Cl)ccc12` [Example I-3, 6-chloro-N-(6-chloro-5-fluoro-2-methoxypyridin-3-yl)-1H-indole-3-sulfonamide], the Kb in test [2] is at most 3.16 nM. Moreover, the IC50 in test [3] is 3.16 to 31.6 nM. The matching figures for `COc1nc(F)c(NS(=O)(=O)c2c[nH]c3cc(Cl)ccc23)cc1F` [Example I-5, 6-chloro-N-(2,5-difluoro-6-methoxypyridin-3-yl)-1H-indole-3-sulfonamide]: 3.16 to 31.6 nM and 3.16 to 31.6 nM. The matching figures for `COc1nc(OC)c(NS(=O)(=O)c2c[nH]c3cc(Cl)ccc23)cc1F` [Example I-6, 6-chloro-N-(5-fluoro-2,6-dimethoxypyridin-3-yl)-1H-indole-3-sulfonamide]: at most 3.16 nM and at most 3.16 nM. Consider `Cc1nc(F)c(NS(=O)(=O)c2c[nH]c3cc(Cl)ccc23)cc1F` [Example I-7, 6-chloro-N-(2,5-difluoro-6-methylpyridin-3-yl)-1H-indole-3-sulfonamide], for which the Kb in test [2] is 3.16 to 31.6 nM. For the same molecule, the IC50 in test [3] is 3.16 to 31.6 nM. Take `COc1nc(Br)cnc1NS(=O)(=O)c1c[nH]c2cc(Cl)ccc12` [Example I-10, N-(5-bromo-3-methoxypyrazin-2-yl)-6-chloro-1H-indole-3-sulfonamide]: in test [2], the Kb is at most 3.16 nM. In addition, the IC50 in test [3] is at most 3.16 nM. For `COc1ccc(NS(=O)(=O)c2c[nH]c3cc(Cl)ccc23)cn1` [Example I-15, 6-chloro-N-(6-methoxypyridin-3-yl)-1H-indole-3-sulfonamide], the Kb in test [2] was 31.6 to 316 nM. The IC50 in test [3] was 31.6 to 316 nM. As to `O=S(=O)(Nc1cnc(Br)cn1)c1c[nH]c2cc(Cl)ccc12` [Example I-18, N-(5-bromopyrazin-2-yl)-6-chloro-1H-indole-3-sulfonamide], the Kb in test [2] was 31.6 to 316 nM. Moreover, the IC50 in test [3] was 31.6 to 316 nM. As for `O=S(=O)(Nc1ccc(I)nc1)c1c[nH]c2cc(Cl)ccc12` [Example I-21, 6-chloro-N-(6-iodopyridin-3-yl)-1H-indole-3-sulfonamide], the Kb in test [2] is 3.16 to 31.6 nM. Besides, the IC50 in test [3] is 31.6 to 316 nM. With `O=S(=O)(Nc1cnc(Cl)cc1F)c1c[nH]c2cc(Cl)ccc12` [Example I-25, 6-chloro-N-(6-chloro-4-fluoropyridin-3-yl)-1H-indole-3-sulfonamide], in test [2], the Kb was at most 3.16 nM. Besides, the IC50 in test [3] was 3.16 to 31.6 nM. As to `COc1nc(Cl)c(F)cc1NS(=O)(=O)c1c[nH]c2nc(Cl)ccc12` [Example I-32, 6-chloro-N-(6-chloro-5-fluoro-2-methoxypyridin-3-yl)-1H-pyrrolo[2,3-b]pyridine-3-sulfonamide], the Kb in test [2] was at most 3.16 nM. Also, the IC50 in test [3] is at most 3.16 nM. As for `COc1nc(F)c(NS(=O)(=O)c2c[nH]c3nc(Cl)ccc23)cc1F` [Example I-33, 6-chloro-N-(2,5-difluoro-6-methoxypyridin-3-yl)-1H-pyrrolo[2,3-b]pyridine-3-sulfonamide], the Kb in test [2] is 31.6 to 316 nM. Also, in test [3], the IC50 is 31.6 to 316 nM. With `COc1nc(OC)c(NS(=O)(=O)c2c[nH]c3nc(Cl)ccc23)cc1F` [Example I-34, 6-chloro-N-(5-fluoro-2,6-dimethoxypyridin-3-yl)-1H-pyrrolo[2,3-b]pyridine-3-sulfonamide], the Kb in test [2] is 3.16 to 31.6 nM. The IC50 in test [3] is 3.16 to 31.6 nM. Regarding `NCc1[nH]cc(CCC(=O)O)c1CC(=O)O` [PBG, porphobilinogen], the “amounts needed in the assays (GPR17 activating ligand)” value in test [1] is “mM range”.
